We go through 1 molecule from US20200281897A1, “INDAZOLE DERIVATIVES FOR CANCER TREATMENT” (Servicio Andaluz de Salud, priority 2016, published 2020).

Holding throughout (format): cell-based, human
One data set concerns MM1R. Description: MTT cell viability assay, myeloma cell line MM1R. To be noted: MM1R, MTT, 18 hours, doses 0-50 μM; read-out: IC50, cell viability. As for the experimental part: In vitro studies were carried out using six different human MM cell lines, U266, RPMI8226, MM1S, MM1R, U266-LR7, and RPMI-LR5. For ex vivo assays, human primary cells from healthy donors and MM patients were used (Table 1). Human MM cell lines U266, RPMI8226, and MM1.S were acquired from ATCC and lines U266-LR7, RPMI-LR5, and MM1.R were kindly provided by Dr. Enrique Ocio (Hospital Universitario de Salamanca, Spain). The primary cells were obtained from bone marrow (BM) aspirates or peripheral blood (PB) samples, and the peripheral blood mononuclear cells (PBMCs) were isolated by Ficoll-Hypaque centrifugation and washed twice in phosphate buffered saline (PBS) containing 1% BSA. Hematopoietic stem cells and B and T lymphocytes were isolated from healthy PB donors by positive immunomagnetic separation using human MACS CD34+, CD19+, and CD3+ microbeads, respectively. MM plasma cells were obtained from the bone marrow (BM) of patients with an infiltration of cells of more than 30% (Table 1). The MM plasma cells were identified using CD138+, and were then distinguished from the other cell populations by flow cytometry using a suitable combination of antibodies: anti-human CD64-FITC, CD34-PE, CD56-APC, CD38-APC-H7, and CD45-Pacific Blue antibodies (BD Biosciences, San Jose, Calif.). All the cell lines were cultured in RPMI-1640 supplemented with 10% fetal bovine serum (FBS) and 1% penicillin/streptomycin, as recommended by the supplier. For human primary cells, the concentration of FBS was up to 20%.
The MM cell lines and primary cells were exposed to different doses of indazole compounds, and viability was evaluated at 18, 48, and 72 hours. Pretreatments with the ceramide synthesis inhibitor (FB1), pan-caspase (ZVAD-FMK), and CB antagonists (PGN-8, PGN-37, and PGN-70) were performed for 30 minutes, and then the cells were incubated with indazole compound WIN-55 up to 18 hours. Cell viability was determined using the MTT assay Cell Counting Kit-8 (Dojindo, Kumamoto, Japan) according to the manufacturer's instructions.
On the technique in general: Tetrazolium assays rely on reduction of a dye to a coloured formazan, in cell work by metabolically active cells.

The next data set relates to U266. The data set is described as follows: Cell viability by flow cytometry (annexin V/7-AAD), U266. To be noted: U266, 18 hours. The protocol:
(§1) The cell viability of the MM cell lines and primary cells from healthy PB donors was also evaluated by flow cytometry using 7-AAD/Annexin V. Patient bone marrow (BM) cells were analyzed using 7-AAD with a combination of monoclonal antibodies against myeloma-associated antigens (anti-CD56-APC, anti-CD45-Pacific Blue, and anti-CD38-APC-H7 [BD Biosciences]) and antibodies for distinguishing the granulomonocytic population (anti-CD64-FITC) and lymphocytic population (anti-CD45-Pacific Blue). The cells were acquired by means of FACSCanto II flow cytometer (BD Biosciences) and analyzed using Infinicyt™ Software (Cytognos, Spain).
Background: In flow cytometry, cells or beads pass a laser one at a time.

The subject of another data set is RPMI. Description: Cell viability by flow cytometry (annexin V/7-AAD), RPMI. The settings on record: 18 hours. As for the experimental part:
as §1

A further data set relates to KG-1. The data set is described as follows: WST-1 cell viability assay, KG-1. The settings on record: KG-1, 18 hours. As for the experimental part:
U937, NB-4, KG-1, and MOLM-13 (DMSZ, Braunschweig, Germany) were cultured in complete RPMI 1640 medium (with 2 mM of L-glutamine, 100 mg of penicillin, 100 μg/ml of streptomycin, and with 10% FBS), supplemented with 10 mM HEPES, 1×NaPuvuvato, and 1× non-essential amino acids.
The cell lines and primary cells were cultured in 96-well plates (5×10e5 cells per well) with the addition of the indicated concentrations of WIN 55,212-2 or PGN cannabinoids in DMSO or with the solvent only in triplicate at 18, 48, and 72 hours. Caspase inhibitor Z-VAD (OMe)-FMK or the CB2 receptor antagonist PGN-8, -37, and -70, together with the cannabinoid WIN-55,212-2, were also added. Cell viability was determined by means of the WST-1 assay [2-(4-iodophenyl)-3-(4-nitrophenyl)-5-(2,4-disulfophenyl)-2H-tetrazolium] according to the manufacturer's instructions (Dojindo Molecular Technologies). Optical densities were measured at 450 nm using a Multiskan™ Go Microplate plate reader (Thermo Fisher Scientific, Waltham, Mass., USA).
Now it will be analyzed whether the exposure to cannabinoids had any effect on the viability of the tumor cells in vitro. […]

The subject of the next data set is HL60. Description: Western blot and immunocytofluorescence in HL60 cells. The text has this: The detailed methodology for analyzing mitochondrial membrane potential (APm), Western Blot analysis, and immunocytofluorescence analysis has been described elsewhere 29

Structures are written as SMILES.

Broadly, the IC50 is the concentration needed to halve the response being measured.

`CS(=O)(=O)O.Cc1c(C(=O)c2cccc3ccccc23)c2cccc3c2n1[C@H](CN1CCOCC1)CO3` [WIN-55, (R)-(+)-[2,3-dihydro-5-methyl-3-(4-morpholinomethyl)-pyrrolo[1,2,3]-1,4-benzoxazin-6-yl]-1-naphthalenylmethanone mesylate]: the IC50 in the data set with MM1R was 12.1 µM; in the data set on U266 it was 18.5 µM; with RPMI, 12.7 µM; with KG-1, 33.2 µM. Moreover, in the data set with KG-1, the “% viable cells at 50 μM” value is listed as 57.4%. The “expression of Bax (immunocytofluorescence)” value in the data set with HL60 (HL60) is reported as “considerable increase in Bax”. Moreover, the “caspase activation pattern (Western blot)” value in the data set on HL60 (HL60, 50 μM, 2, 6, 18 and 24 hours) is “activation of various caspases”.
